Measurements taken from US10414775B2 (Merck Sharp & Dohme Corp., priority 2016, dated 2019).
Structures can show the parent of a compound that is named as a salt.

Biological target: T1, Human CYP8B1 (Homo sapiens, UniProt Q9UNU6)
T1 construct: tissue Xenotech; host or cells: human liver microsomes
T1 sequence (Q9UNU6 1-501): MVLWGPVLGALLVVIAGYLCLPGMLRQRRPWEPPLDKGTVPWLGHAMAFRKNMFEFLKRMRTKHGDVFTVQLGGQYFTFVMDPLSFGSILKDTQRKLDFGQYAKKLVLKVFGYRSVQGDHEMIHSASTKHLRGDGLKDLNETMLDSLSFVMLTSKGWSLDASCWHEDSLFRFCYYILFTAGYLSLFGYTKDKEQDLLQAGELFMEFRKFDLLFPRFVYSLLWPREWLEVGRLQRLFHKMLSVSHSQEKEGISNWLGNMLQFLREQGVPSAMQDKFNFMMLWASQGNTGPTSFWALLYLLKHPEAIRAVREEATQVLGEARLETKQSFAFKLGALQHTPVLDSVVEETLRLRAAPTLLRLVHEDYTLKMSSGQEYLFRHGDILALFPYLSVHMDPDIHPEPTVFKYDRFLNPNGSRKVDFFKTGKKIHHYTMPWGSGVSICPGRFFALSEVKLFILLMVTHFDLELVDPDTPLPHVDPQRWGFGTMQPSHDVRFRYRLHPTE
Assay: Human Cyp8B1 Liver Microsome Assay
Format: biochemical
Details: human liver microsomes; substrate 7α-hydroxy-4-cholesten-3-one, NADPH; 30 min pre-incubation, 45 min reaction; RapidFire MS readout
How it was run: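 Human liver microsomes (65 μg/ml, 0.1 M phosphate pH 7.4) preincubated 30 min at room temperature with inhibitor (1.25% DMSO final), then reacted 45 min with 7α-hydroxy-4-cholesten-3-one and NADPH. 7α,12α-dihydroxy product quantified by RapidFire ESI+ MRM against d7 internal standard; IC50 from four-parameter logistic fit.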

SMILES | IC50
C[C@@H]1CN(c2ccnc3cc(C#N)ccc23)CC[C@@H]1C(=O)N1CCn2c(nnc2C(F)(F)F)C1 [Example 24, 4-[(3S,4S)-3-methyl-4-{[3-(trifluoromethyl)-5,6-dihydro[1,2,4]tria-zolo[4,3-a]pyrazin-7(8H)-yl]carbonyl}piper-idin-1-yl]quinoline-7-carbonitrile] | 8.4 nM
C[C@@H]1CN(c2ccnc3cc(-c4ccccc4)ccc23)CC[C@@H]1C(=O)N1CCn2c(nnc2C(F)(F)F)C1 [Example 80] | 0.4 nM
C[C@@H]1CN(c2ccnc3cc(-n4cncn4)ccc23)CC[C@@H]1C(=O)N1CCn2c(nnc2C(F)(F)F)C1 [Example 74, ((3S,4S)-1-(7-(1H-1,2,4-triazol-1-yl)quinolin-4-yl)-3-methylpiperidin-4-yl)(3-(trifluoromethyl)-5,6-dihydro-[1,2,4]triazolo[4,3-a]pyrazin-7(8H)-yl)methanone] | 41.7 nM
C[C@@H]1CN(c2c(F)cnc3cc(C(C)(F)F)ccc23)CC[C@@H]1C(=O)N1CCn2c(nnc2C(F)(F)F)C1 [Example 47, {(3S,4S)-1-[7-(1,1-difluoroethyl)-3-fluoroquinolin-4-yl]-3-methylpiperidin-4-yl}[3-(trifluoromethyl)-5,6-dihydro[1,2,4]triazolo[4,3-a]pyrazin-7(8H)-yl]methanone] | 0.57 nM
C[C@@H]1CN(c2ccnc3c2CCN(CC(F)(F)F)C3)CC[C@@H]1C(=O)N1CCn2c(nnc2C(F)(F)F)C1 [Example 63, ((3S,4S)-3-methyl-1-(7-(2,2,2-trifluoroethyl)-5,6,7,8-tetrahydro-1,7-naphthyridin-4-yl)piperidin-4-yl)(3-(trifluoromethyl)-5,6-dihydro-[1,2,4]triazolo[4,3-a]pyrazin-7(8H)-yl)methanone] | 120 nM
Cc1cc(N2CC[C@H](C(=O)N3CCn4c(nnc4C(F)(F)F)C3)[C@H](C)C2)c2cc(Cl)ccc2n1 [Example 13, [(3S,4S)-1-(6-chloro-2-methylquinolin-4-yl)-3-methylpiperidin-4-yl][3-(trifluoromethyl)-5,6-dihydro[1,2,4]tria-zolo[4,3-a]pyrazin-7(8H)-yl]methanone] | 3040 nM
C[C@@H]1CN(c2ccnc3cc(C(F)F)ccc23)CC[C@@H]1C(=O)N1CCn2c(nnc2C(F)(F)F)C1 [Example 58, ((3S,4S)-1-(7-(difluoromethyl)quinolin-4-yl)-3-methylpiperidin-4-yl)(3-(trifluoromethyl)-5,6-dihydro-[1,2,4]triazolo[4,3-a]pyrazin-7(8H)-yl)methanone] | 5.97 nM
CC1CN(c2ccnc3ccc(Cl)cc23)CCC1C(=O)N1CCn2c(nnc2C(F)(F)F)C1 (stereo not drawn) [Example 10, [1-(6-chloroquinolin-4-yl)-3-methylpiperidin-4-yl][3-(trifluoromethyl)-5,6-dihydro[1,2,4]triazolo[4,3-a]pyrazin-7(8H)-yl]methanone] | 8.5 nM
C[C@@H]1CN(c2ccnc3cc(-c4ccncc4)ccc23)CC[C@@H]1C(=O)N1CCn2c(nnc2C(F)(F)F)C1 [Example 79, ((3S,4S)-3-methyl-1-(7-(pyridin-4-yl)quinolin-4-yl)piperidin-4-yl)(3-(trifluoromethyl)-5,6-dihydro-[1,2,4]triazolo[4,3-a]pyrazin-7(8H)-yl)methanone] | 0.7 nM
C[C@@H]1CN(c2ccnc3ccc(Cl)cc23)CC[C@@H]1C(=O)N1CCn2c(nnc2C(F)(F)F)C1 (single isomer, unassigned) [Example 11a] | 3.5 nM
Cc1cc(N2CC[C@H](C(=O)N3CCn4c(nnc4C(F)(F)F)C3)[C@H](C)C2)c2ccc(F)c(F)c2n1 [Example 18, 7,8-difluoro-2-methyl-4-[(3S,4S)-3-methyl-4-{[3-(trifluoromethyl)-5,6-dihydro[1,2,4]tria-zolo[4,3-a]pyrazin-7(8H)-yl]carbonyl}piper-idin-1-yl]quinolinium trifluoroacetate] | 385 nM
C[C@@H]1CN(c2ccnc3ccc(F)cc23)CC[C@@H]1C(=O)N1CCn2c(nnc2C(F)(F)F)C1 [Example 14, [(3S,4S)-1-(6-fluoroquinolin-4-yl)-3-methylpiperidin-4-yl][3-(trifluoromethyl)-5,6-dihydro[1,2,4]tria-zolo[4,3-a]pyrazin-7(8H)-yl]methanone] | 52 nM
C[C@@H]1CN(c2ccnc3cc(S(C)(=O)=O)ccc23)CC[C@@H]1C(=O)N1CCn2c(nnc2C(F)(F)F)C1 [Example 71, ((3 S,4S)-3-methyl-1-(7-(methylsulfonyl)quinolin-4-yl)piperidin-4-yl)(3-(trifluoromethyl)-5,6-dihydro-[1,2,4]triazolo[4,3-a]pyrazin-7(8H)-yl)methanone] | 305 nM
Cc1coc(-c2ccc3c(N4CC[C@H](C(=O)N5CCn6c(nnc6C(F)(F)F)C5)[C@H](C)C4)ccnc3c2)n1 [Example 75, ((3S,4S)-3-methyl-1-(7-(4-methyloxazol-2-yl)quinolin-4-yl)piperidin-4-yl)(3-(trifluoromethyl)-5,6-dihydro-[1,2,4]triazolo[4,3-a]pyrazin-7(8H)-yl)methanone] | 1.4 nM

Results, then the compound that gave them:

IC50 | SMILES
1.2 nM | C[C@@H]1CN(c2c(Cl)cnc3cc(S(C)(=O)=O)ccc23)CC[C@@H]1C(=O)N1CCn2c(nnc2C(F)(F)F)C1 [Example 72, ((3S,4S)-1-(3-chloro-7-(methylsulfonyl)quinolin-4-yl)-3-methylpiperidin-4-yl)(3-(trifluoromethyl)-5,6-dihydro-[1,2,4]triazolo[4,3-a]pyrazin-7(8H)-yl)methanone]
0.67 nM | COc1ccc2c(N3CC[C@H](C(=O)N4CCn5c(nnc5C(F)(F)F)C4)[C@H](C)C3)c(C3CC3)cnc2c1 [Example 34, [(3S,4S)-1-(3-cyclopropyl-7-methoxyquinolin-4-yl)-3-methylpiperidin-4-yl][3-(trifluoromethyl)-5,6-dihydro[1,2,4]triazolo[4,3-a]pyrazin-7(8H)-yl]methanone]
0.6 nM | C[C@@H]1CN(c2c(Cl)cnc3cc(F)ccc23)CC[C@@H]1C(=O)N1CCn2c(nnc2C(F)(F)F)C1 [Example 4, ((3S,4S)-1-(3-chloro-7-fluoroquinolin-4-yl)-3-methylpiperidin-4-yl)(3-(trifluoromethyl)-5,6-dihydro-[1,2,4]triazolo[4,3-a]pyrazin-7(8H)-yl)methanone]
0.22 nM | C[C@@H]1CN(c2c(Cl)cnc3cc(OCC4CC4)ccc23)CC[C@@H]1C(=O)N1CCn2c(nnc2C(F)(F)F)C1 [Example 51]
1.7 nM | C[C@@H]1CN(c2c(F)cnc3cc(Cl)ccc23)CC[C@@H]1C(=O)N1CCn2c(nnc2C(F)(F)F)C1 [Example 48, [(3S,4S)-1-(7-chloro-3-fluoroquinolin-4-yl)-3-methylpiperidin-4-yl][3-(trifluoromethyl)-5,6-dihydro[1,2,4]triazolo[4,3-a]pyrazin-7(8H)-yl]methanone]
0.9 nM | C[C@@H]1CN(c2c(Cl)cnc3c(F)cccc23)CC[C@@H]1C(=O)N1CCn2c(nnc2C(F)(F)F)C1 [Example 6, ((3S,4S)-1-(3-chloro-8-fluoroquinolin-4-yl)-3-methylpiperidin-4-yl)(3-(trifluoromethyl)-5,6-dihydro-[1,2,4]triazolo[4,3-a]pyrazin-7(8H)-yl)methanone]
0.2 nM | COc1ccc2c(N3CC[C@H](C(=O)N4CCn5c(nnc5C(F)(F)F)C4)[C@H](C)C3)c([N+](=O)[O-])cnc2c1 [Example 9, ((3S,4S)-1-(7-methoxy-3-nitroquinolin-4-yl)-3-methylpiperidin-4-yl)(3-(trifluoromethyl)-5,6-dihydro-[1,2,4]triazolo[4,3-a]pyrazin-7(8H)-yl)methanone]
1.3 nM | C[C@@H]1CN(c2c(Cl)cnc3nc(C(F)(F)F)ccc23)CC[C@@H]1C(=O)N1CCn2c(nnc2C(F)(F)F)C1 [Example 37, {(3S,4S)-1-[3-chloro-7-(trifluoromethyl)-1,8-naphthyridin-4-yl]-3-methylpiperidin-4-yl}[3-(trifluoromethyl)-5,6-dihydro[1,2,4]triazolo[4,3-a]pyrazin-7(8H)-yl]methanone]
0.2 nM | C[C@@H]1CN(c2c(Cl)cnc3cc(C(F)(F)F)ccc23)CC[C@@H]1C(=O)N1CCn2c(nnc2C(F)(F)F)C1 [Example 55, ((3S,4S)-1-(3-chloro-7-(trifluoromethyl)quinolin-4-yl)-3-methylpiperidin-4-yl)(3-(trifluoromethyl)-5,6-dihydro-[1,2,4]triazolo[4,3-a]pyrazin-7(8H)-yl)methanone]
0.38 nM | COc1ccc2c(N3CC[C@H](C(=O)N4CCn5c(nnc5C(F)(F)F)C4)[C@H](C)C3)c(Cl)cnc2c1F [Example 41, [(3S,4S)-1-(3-chloro-8-fluoro-7-methoxyquinolin-4-yl)-3-methylpiperidin-4-yl][3-(trifluoromethyl)-5,6-dihydro[1,2,4]triazolo[4,3-a]pyrazin-7(8H)-yl]methanone]
